In ChEMBL document CHEMBL4811216, “Chemotherapy for human schistosomiasis: how far have we come? What's new? Where do we go from here?” (RSC Med Chem, 2020):
Values belong to the compound of their own block, whether it stands above or below them.

Tests used:
[1] = test system: Plasmodium falciparum; test: Antiplasmodial activity against Plasmodium falciparum Dd2 incubated for 72 hrs by SYBR Green1 by fluorometric assay; type: functional, organism-based; conditions: Dd2, 72 h
[2] = test system: Plasmodium falciparum; test: Antiplasmodial activity against Plasmodium falciparum 3D7 incubated for 72 hrs by SYBR Green1 by fluorometric assay; type: functional, organism-based; conditions: 3D7, 72 h
[3] = test system: Schistosoma japonicum; test: Antischistosomal activity against Schistosoma japonicum assessed as worm mortality at 5 ug/ml incubated for 72 hrs by microscopic method relative to control; type: functional; conditions: dose 5 µg/ml
[4] = test system: Schistosoma mansoni; test: Antischistosomal activity against Schistosoma mansoni NRMI schistosomula incubated for 24 hrs; type: functional
[5] = target: T1, ATP-diphosphohydrolase 1 (Schistosoma mansoni, UniProt Q7YTA4); test: Inhibition of Schistosoma mansoni ATPDase1 incubated for 30 mins
T1 sequence (Q7YTA4 whole entry): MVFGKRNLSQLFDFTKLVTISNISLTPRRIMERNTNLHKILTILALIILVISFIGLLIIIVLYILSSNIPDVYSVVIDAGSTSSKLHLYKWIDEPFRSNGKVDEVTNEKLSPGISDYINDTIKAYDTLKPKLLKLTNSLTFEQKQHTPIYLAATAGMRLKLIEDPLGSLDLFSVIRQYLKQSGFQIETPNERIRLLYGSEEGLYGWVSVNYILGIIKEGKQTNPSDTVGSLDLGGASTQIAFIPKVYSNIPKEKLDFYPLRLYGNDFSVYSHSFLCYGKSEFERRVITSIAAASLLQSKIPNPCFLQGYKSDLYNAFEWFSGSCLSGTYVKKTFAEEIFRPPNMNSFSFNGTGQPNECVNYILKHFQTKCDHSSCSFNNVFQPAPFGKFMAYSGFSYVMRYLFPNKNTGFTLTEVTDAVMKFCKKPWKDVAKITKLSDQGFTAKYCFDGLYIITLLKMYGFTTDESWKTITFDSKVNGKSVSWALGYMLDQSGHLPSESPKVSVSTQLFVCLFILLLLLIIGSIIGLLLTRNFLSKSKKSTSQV

[6] = test system: Schistosoma mansoni; test: Antischistosomal activity against Schistosoma mansoni BH infected in Balb/c mouse assessed as reduction in worm burden at 400 mg/kg, po measurement after 2 weeks; type: functional; design: scale not given: the % may be the effect or the level left
[7] = test system: Schistosoma mansoni; test: schistosomicidal-activity against Schistosoma mansoni infected in NIH-Swiss mouse assessed as reduction in liver-staged worm burden at 10 mg/kg, ip administered daily for 5 consecutive days relative to control; type: functional; design: scale not given: the % may be the effect or the level left
[8] = test system: Schistosoma mansoni; test: schistosomicidal-activity against adult Schistosoma mansoni infected in NIH-Swiss mouse assessed as reduction in worm burden at 10 mg/kg, ip administered daily for 5 consecutive days relative to control; type: functional; design: scale not given: the % may be the effect or the level left; conditions: time 5 day
[9] = test system: Schistosoma mansoni; test: Schistosomicidal-activity against Schistosoma mansoni infected in NIH-Swiss mouse assessed as reduction in skin staged worm burden at 10 mg/kg, ip administered daily for 5 consecutive days relative to control; type: functional; design: scale not given: the % may be the effect or the level left
[10] = test system: Schistosoma mansoni; test: Antischistosomal activity against female Schistosoma mansoni Egyptian strain infected in BALB/c mouse assessed as reduction in total worm burden at 200 mg/kg, po measured after 2 weeks by scanning electron microscopy; type: functional; design: scale not given: the % may be the effect or the level left
[11] = test system: Schistosoma mansoni; test: Antischistosomal activity against female Schistosoma mansoni Egyptian strain infected in BALB/c mouse assessed as reduction in female worm burden at 300 mg/kg, po measured after 2 weeks by scanning electron microscopy relative to control; type: functional; design: scale not given: the % may be the effect or the level left
[12] = test system: Schistosoma mansoni; test: Antischistosomal activity against female Schistosoma mansoni Egyptian strain infected in BALB/c mouse assessed as reduction in total worm burden at 300 mg/kg, po measured after 2 weeks by scanning electron microscopy relative to control; type: functional; design: scale not given: the % may be the effect or the level left
[13] = test system: Schistosoma mansoni; test: Antischistosomal activity against Schistosoma mansoni LE infected in BALB/c mouse assessed as reduction in worm burden at 10 mg/kg, ip administered for 5 consecutive days starting from day 1 post infection by microscopic method relative to control; type: functional; design: scale not given: the % may be the effect or the level left
[14] = test system: Schistosoma mansoni; test: Antischistosomal activity against Schistosoma mansoni LE infected in BALB/c mouse assessed as reduction in worm burden at 10 mg/kg, ip administered for 5 consecutive days starting from day 23 by microscopic method relative to control; type: functional; design: scale not given: the % may be the effect or the level left
[15] = test system: Schistosoma mansoni; test: Antischistosomal activity against female Schistosoma mansoni Egyptian strain infected in BALB/c mouse assessed as reduction in male worm burden at 300 mg/kg, po measured after 2 weeks by scanning electron microscopy relative to control; type: functional; design: scale not given: the % may be the effect or the level left
[16] = test system: Schistosoma mansoni; test: Antischistosomal activity against female Schistosoma mansoni Egyptian strain infected in BALB/c mouse assessed as reduction in worm burden at 200 mg/kg, po measured after 2 weeks; type: functional; design: scale not given: the % may be the effect or the level left
[17] = test system: Schistosoma mansoni; test: Antischistosomal activity against Schistosoma mansoni at 50 uM measured after 120 hrs relative to control; type: functional
[18] = test system: Schistosoma mansoni; test: Antischistosomal activity against Schistosoma mansoni at 50 uM measured after 96 hrs relative to control; type: functional
[19] = Volume of distribution in C57BL/6 mouse at 20 mg/kg, po; type: ADME, organism-based; conditions: in vivo
[20] = Oral bioavailability in C57BL/6 mouse at 20 mg/kg; type: ADME, organism-based; conditions: in vivo
[21] = test system: Schistosoma japonicum; test: Antischistosomal activity against juvenile Schistosoma japonicum assessed as reduction in worm vitality at 25 uM incubated for 72 hrs relative to control; type: functional; design: scale not given: the % may be the effect or the level left
[22] = test system: Schistosoma mansoni; test: Antischistosomal activity against Schistosoma mansoni incubated for 72 hrs by microscopic method; type: functional, organism-based
[23] = Cmax in C57BL/6 mouse at 20 mg/kg, po measured after 3 hrs; type: ADME, organism-based; design: route oral, dose 20 mg/kg, time 3 hrs; conditions: in vivo
[24] = test system: Schistosoma mansoni; test: Antischistosomal activity against adult Schistosoma mansoni infected in NMRI mouse assessed as worm burden reduction at 400 mg/kg, po administered as single dose and measured at 21 days post treatment relative to control; type: functional; design: scale not given: the % may be the effect or the level left; conditions: time 21 day
[25] = Half life in C57BL/6 mouse at 20 mg/kg, po; type: ADME, organism-based; conditions: in vivo
[26] = test system: Schistosoma mansoni; test: Antischistosomal activity against adult Schistosoma mansoni LE assessed as reduction in motor activity at 10 uM measured after 24 hrs by inverted microscopy relative to control; type: functional; design: scale not given: the % may be the effect or the level left
[27] = test system: Schistosoma mansoni; test: Antischistosomal activity against adult Schistosoma mansoni LE assessed as reduction in motor activity at 50 uM measured after 24 hrs by inverted microscopy relative to control; type: functional; design: scale not given: the % may be the effect or the level left
[28] = test system: Schistosoma mansoni; test: Antischistosomal activity against adult Schistosoma mansoni LE assessed as seperation of male and female worms at 10 uM measured after 24 hrs by inverted microscopy relative to control; type: functional

Structure (SMILES): CCCCNCC(O)Cn1c2ccc(Cl)cc2c2cc(Cl)ccc21 (stereo not drawn)
- IC50 [1]: 47 nM
- IC50 [2]: 274 nM
- Activity [3]: 100%

Structure (SMILES): CC(C)c1cc2c(cc1O)C(=O)C[C@H]1C(C)(C)CCC[C@]21C
- LC50 [4]: 19100 nM

Structure (SMILES): COc1ccc(/C=C/C(=O)c2ccccc2O)cc1
- IC50 [5]: 30600 nM
- Activity [6]: 32.8%

Structure (SMILES): N#Cc1c(-c2ccccc2)no[n+]1[O-]
- Activity [7]: 88%
- Activity [8]: 94%
- Activity [9]: 99%

Structure (SMILES): CC(C)Oc1ccc(-c2ccc(-c3nc4ccccc4[nH]3)s2)cc1
- Activity [10]: 44%
- Activity [11]: 76.5%
- Activity [12]: 55.3%
- Activity [13]: 34.6%
- Activity [14]: 55.3%
- Activity [15]: 34.6%
- Activity [16]: 66%

Structure (SMILES): CN(c1ccc(F)cc1)N(C)C1NC(=O)N(Cc2ccc(Cl)cc2)C1=S (stereo not drawn)
- Activity [17]: 100%
- Activity [18]: 100%

- Vd [19]: 0.18 L/kg
- bioavailability [20]: < 1%
- IC50 [22]: 380 nM
- Cmax [23]: 300 nM
- t1/2 [25]: 18 min
Structure (SMILES): N#Cc1c(C(F)(F)F)cc(NCc2ccccc2F)n2c1nc1cc(Cl)c(Cl)cc12
- Activity [21]: <1%
- Activity [24]: 69%

Structure (SMILES): COc1cc(C[C@@H]2C(=O)OC[C@H]2Cc2cc(OC)c3c(c2)OCO3)cc(OC)c1OC
- Activity [26]: 100%
- Activity [27]: >75%
- Activity [28]: >85%
